Measurements from BindingDB's records for patent US11878965 (Gilead Sciences, 2024).
pIC50: −log10 of the molar value.

Target: Protein-arginine deiminase type-4 (Homo sapiens, UniProt Q9UM07)
Assay: In Vitro PAD4 BAEE Biochemical Assay
Experimental: One hundred nanoliters of test compounds dissolved in DMSO at various concentrations were dispensed into a 384-well black OptiPlate using a Labcyte Echo instrument. Ten microliters of a solution of recombinant PAD4 and calcium chloride diluted in PAD4 assay buffer (50 mM MOPS [3-(N-morpholino) propanesulfonic acid], pH 7.6; 50 mM sodium chloride; 0.05% Tween-20; 2 mM dithiothreitol) was added to the compound-containing plate and was incubated for 30 minutes at 25° C. Ten microliters of a solution of BAEE (Sigma-Aldrich #B4500) diluted in PAD4 assay buffer was then added to start the reaction. Final concentrations were 5 nM PAD4, 2 mM calcium chloride, and 3 mM BAEE. The reaction mixture was incubated at 25° C. for 2 hours and was stopped with the addition of 10 microliters of a solution of 75 mM EDTA (Ethylenediaminetetraacetic acid) in PAD4 assay buffer. Thirty microliters of detection solution (5 mM o-phthalaldehyde, 50 mM MOPS [3-(N-morpholino) propanesulfonic acid], pH 7.6; 50 mM sodium chloride; 0.05% Tween-20; 5 mM dithiothreitol) was then added and the reaction was incubated for 1 hour at 25° C.

Sequence of Protein-arginine deiminase type-4 (Q9UM07 whole entry): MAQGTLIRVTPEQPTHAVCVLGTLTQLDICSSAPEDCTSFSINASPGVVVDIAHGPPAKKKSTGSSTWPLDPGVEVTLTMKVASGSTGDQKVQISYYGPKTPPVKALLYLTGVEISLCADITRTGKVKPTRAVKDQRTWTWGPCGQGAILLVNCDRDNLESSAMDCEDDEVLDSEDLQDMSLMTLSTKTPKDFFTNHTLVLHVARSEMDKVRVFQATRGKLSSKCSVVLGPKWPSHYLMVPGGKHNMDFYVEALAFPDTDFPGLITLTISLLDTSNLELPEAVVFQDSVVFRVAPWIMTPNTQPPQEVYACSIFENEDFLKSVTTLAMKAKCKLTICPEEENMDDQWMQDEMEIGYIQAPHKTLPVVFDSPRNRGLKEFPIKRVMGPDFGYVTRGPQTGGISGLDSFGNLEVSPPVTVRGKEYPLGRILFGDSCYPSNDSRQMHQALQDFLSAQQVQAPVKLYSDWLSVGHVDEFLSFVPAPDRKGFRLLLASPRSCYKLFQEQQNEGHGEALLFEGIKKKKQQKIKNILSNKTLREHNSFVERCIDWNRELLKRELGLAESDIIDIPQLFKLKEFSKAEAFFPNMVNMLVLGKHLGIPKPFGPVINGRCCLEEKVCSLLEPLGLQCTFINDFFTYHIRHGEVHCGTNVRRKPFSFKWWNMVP

Row | Structure (SMILES) | pIC50
1 | COc1cc(C(=O)N2[C@H]3CC[C@@H]2[C@H](N)C3)cc2nc(-c3cc4ccc([C@@H](C)NC(=O)C56CC(F)(C5)C6)c(F)c4n3CC3CC3)n(C)c12 [US11878965, Example 144] | 6.64
2 | COc1cc(C(=O)N2[C@H]3CC[C@@H]2[C@H](N)C3)cc2nc(-c3cc4ccc([C@@H](C)NC(=O)N5CC(F)(F)C5)nc4n3CC3CC3)n(C)c12 [US11878965, Example 238] | 7.54
3 | COc1cc(C(=O)N2C[C@H](N)CC[C@@H]2C)cc2nc(-c3cc4ccc(-c5cccnc5-c5cccnc5Cl)nc4n3CC3CC3)n(C)c12 [US11878965, Example 258] | 6.61
4 | COc1cc(C(=O)N2C[C@H](N)CC[C@@H]2C)cc2nc(-c3cc4ccc(N5C(=O)CC[C@H]5C)nc4n3CC3CC3)n(C)c12 [US11878965, Example 284] | 5.91
5 | COc1cc(C(=O)N2C[C@H](N)[C@@H]3CC[C@H]2C3)cc2nc(-c3cc4ccc([C@@H](C)NC(=O)c5cccnc5Cl)nc4n3CC3CC3)n(C)c12 [US11878965, Example 302] | 7.16
